From patent US7812037B2, “Dual antiplatelet/anticoagulant pyridoxine analogs” (Medicure International, Inc., priority 2004, dated 2010)

Assays:
[1] = biological target: T1, Human FXa (Homo sapiens, UniProt P00742); test: Determination of Anti-Factor Xa (Fxa) Activity; assay type: biochemical; settings: competitive inhibition; substrate Pefachrome Xa; pH 7.5
T1 construct: Determination of Anti-Factor Xa (Fxa) Activity; purchased Calbiochem
Description: The test compounds (40 μL) adjusted to various concentrations (0.25 to 100 μM) were incubated with 5 nM Human FXa (Calbiochem, San Diego, Calif.) enzyme in 125 mM Tris [Tris(hydroxymethyl)aminomethane] buffer (pH 7.5) containing 375 mM sodium chloride and 0.25% polyethylene glycol (MW 8000) (80 μL) at room temperature for about 30 minutes. 80 μL of synthetic substrate Pefachrome® Xa (Pentapharm, Basel, Switzerland), adjusted to various concentrations from 125 μM to 1.25 mM, was added. The activity was measured at 37° C. by monitoring absorbance at 405 nm for 15 minutes using a FLUOstar OPTIMA™ (BMG Labtech GmbH, Offenburg, Germany) microplate reader. Control sample was the solvent alone. Each test compound was analyzed twice using 4 concentrations of compound plus control (in duplicate) with 5 concentrations of substrate (50, 100, 200, 300 and 500 μM). The specific activity (ΔA405/min/nM enzyme) was determined for each data point. The Ki for competitive inhibition was then determined for each test compound using the Enzyme Kinetics module of Sigmaplot 8.0 (SPSS Inc., Chicago, Ill.).

[2] = biological target: T2, Human Thrombin (Homo sapiens, UniProt P00734); test: Determination of Anti-Thrombin (Factor IIa) Activity; assay type: biochemical; settings: competitive inhibition; substrate Pefachrome Thr; pH 8.3
T2 construct: Determination of Anti-Thrombin (Factor IIa) Activity; purchased Calbiochem
Description: The test compounds (40 μL) adjusted to various concentrations (0.25 to 100 μM) were incubated with Human Thrombin (Calbiochem) enzyme (5 nM) in 31 mM Tris buffer (pH 8.3) containing 81 mM sodium chloride and 0.63% bovine serum albumin (fraction V)(80 μL) at room temperature for about 30 minutes. 80 μL of Pefachrome® Thr (Pentapharm) was adjusted to various concentrations, from 62.5 μM to 1.25 mM. The activity was measured at about 37° C. by monitoring absorbance at 405 nm for about 15 minutes using a FLUOstar OPTIMA™. Control sample was the solvent alone. Each test compound was analyzed twice using 4 concentrations of compound plus control (in duplicate) with 5 concentrations of substrate (50, 100, 200, 300 and 500 μM). The specific activity (ΔA405/min/nM enzyme) was determined for each data point. The Ki for competitive inhibition was then determined for each test compound using the Enzyme Kinetics module of Sigmaplot 8.0 (SPSS).

[3] = system: platelets (platelet rich plasma); test: Inhibition of platelet aggregation, collagen as agonist; assay type: cell-based; settings: human PRP; for inhibition at 30 µM: compound 30 μM; for inhibition at 50 µM: compound 50 μM; for inhibition at 100 µM: compound 100 μM
Description: (§1) Platelet rich plasma (PRP) was obtained by drawing whole blood from normal human donors (not on any medication) into sodium citrate tubes (3.2%), and centrifuging at 160×g for about 10 minutes. Platelet poor plasma (PPP) was obtained by centrifuging the remainder of the sample after the platelets were removed at 800×g for about 10 minutes. The PRP was adjusted to a count of 280×10^9/L using a mixture of PRP and PPP. The platelets (200 μL) were incubated with the test compounds (25 μL) adjusted to various concentrations (5, 10, 20, 30, 50, and 100 μM) for about 30 minutes at room temperature (approximate final platelet count in the incubation mixture of 250×10^9/L). The samples were incubated for about 3 minutes at about 37° C., and then transferred to the mixing wells of a Chrono-log 4 channel aggregometer (Chrono-log Corp., Havertown, Pa.). After baselines were established, agonist (25 μL of 40 μM ADP (Sigma, St. Louis, Mo.) or 25 μL of 50 μg/mL and 10 μg/mL collagen (Helena Laboratories, Beaumont, Tex.) or 25 μL of 120 μM thrombin receptor activating peptide (TRAP) (Sigma)) was then added. Aggregation was monitored for 5 minutes at 37° C. with stirring (1000 rpm). The amplitude and slope of each tracing were calculated to determine the amount of aggregation. Control samples were performed using only solvent. The % reduction in aggregation was calculated for each sample compared to the proper solvent control.

[4] = system: platelets (platelet rich plasma); test: Inhibition of platelet aggregation, ADP as agonist; assay type: cell-based; settings: ADP 4 μM, human PRP, read-out: % Reduction in Aggregation ADP (4 μM); for inhibition at 30 µM: compound 30 μM
Description: as §1

[5] = system: platelets (platelet rich plasma); test: Inhibition of platelet aggregation, thrombin receptor activating peptide (TRAP) as agonist; assay type: cell-based; settings: TRAP 12 μM, human PRP, read-out: % Reduction in Aggregation TRAP (12 μM); for inhibition at 30 µM: compound 30 μM
Description: as §1

[6] = collagen 1 μg/mL, read-out: % Reduction in Aggregation Collagen (1 μg/mL)
[7] = collagen 5 μg/mL, read-out: % Reduction in Aggregation Collagen (5 μg/mL)

T1 sequence (P00742 235-488 limits assumed): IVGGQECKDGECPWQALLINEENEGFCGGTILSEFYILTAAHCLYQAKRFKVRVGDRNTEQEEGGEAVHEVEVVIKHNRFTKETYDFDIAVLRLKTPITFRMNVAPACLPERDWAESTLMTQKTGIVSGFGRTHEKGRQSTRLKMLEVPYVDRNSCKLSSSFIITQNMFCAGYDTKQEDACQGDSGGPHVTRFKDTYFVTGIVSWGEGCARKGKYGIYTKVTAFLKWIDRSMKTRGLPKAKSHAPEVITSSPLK
T1 sequence (P00742 41-179 partner limits assumed): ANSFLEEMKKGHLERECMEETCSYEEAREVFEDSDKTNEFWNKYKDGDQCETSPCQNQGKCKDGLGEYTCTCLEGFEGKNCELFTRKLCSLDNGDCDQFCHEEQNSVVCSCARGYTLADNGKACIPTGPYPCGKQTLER

Structure (SMILES): Cc1c(CNc2ccc(C(=N)N)cc2)cnc(C=O)c1OCc1cccc(C(=N)N)c1 [Compound 142, 4-{[5-(3-Amidine-benzyloxy)-6-formyl-4-methyl-pyridin-3-ylmethyl]-amino}-benzamidine]
- Ki [1]: 589 nM
- Ki [2]: 186 nM

Structure (SMILES): Cc1ncc(CNc2ccc(C(=N)N)cc2)c(CF)c1OCc1cccc(C(=N)N)c1 [Compound 108, 4-{[4-Fluoromethyl-5-(3-amidine-benzyloxy)-6-methyl-pyridin-3-ylmethyl]-amino}-benzamidine]
- Ki [1]: 378 nM

Structure (SMILES): Cc1ncc(CNc2ccc(C(=N)N)cc2)cc1OCc1cccc(C(=N)N)c1 [Compound 136, 4-((5-(3-amidinebenzyloxy)-6-methylpyridin-3-yl)methylamino)benzamidine]
- Ki [1]: 503 nM
- Ki [2]: 333 nM

Structure (SMILES): Cc1nc(C2CC2)c(CNc2ccc(C(=N)N)cc2)c(CO)c1OCc1cccc(C(=N)N)c1 [Compound 172, 3-{5-[(4-Carbamimidoyl-phenylamino)-methyl]-6-cyclopropyl-4-hydroxymethyl-2-methyl-pyridin-3-yloxymethyl}-benzamidine]
- Ki [1]: 380 nM
- Ki [2]: 41 nM

Structure (SMILES): Cc1ncc(CNC(=O)c2ccc(C(=N)N)cc2)c(CO)c1OCc1ccc(C(=N)N)cc1 [Compound 73, 4-Carbamimidoyl-N-[5-(4-carbamimidoyl-benzyloxy)-4-hydroxymethyl-6-methyl-pyridin-3-ylmethyl]-benzamide]
- Ki [1]: 3500 nM
- Ki [2]: 720 nM

Structure (SMILES): Cc1ncc(CNc2ccc(C(=N)N)cc2)c(CNCCCCCC(=O)O)c1OCc1ccc(C(=N)N)cc1 [Compound 54, 6-({3-(4-Carbamimidoyl-benzyloxy)-5-[(4-carbamimidoyl-phenylamino)-methyl]-2-methyl-pyridin-4-ylmethyl}-amino)-hexanoic acid]
- inhibition at 30 µM [3, 6]: 15%
- inhibition at 30 µM [3, 7]: 13%
- inhibition at 30 µM [4]: 23%
- inhibition at 30 µM [5]: 53%

Structure (SMILES): Cc1ncc(CO)c(CNc2ccc(C(=N)N)cc2)c1OCc1ccc(C(=N)N)cc1 [Compound 3, 4-{[3-(4-Carbamimidoyl-benzyloxy)-5-hydroxymethyl-2-methyl-pyridin-4-ylmethyl]-amino}-benzamidine]
- inhibition at 50 µM [3, 6]: 20%
- inhibition at 50 µM [3, 7]: 0%
- inhibition at 50 µM ([4]; compound 50 μM): 27%
- inhibition at 50 µM ([5]; compound 50 μM): 81%

Structure (SMILES): Cc1ncc(CNc2ccc(-c3ccc(C(=N)N)cc3)cc2)c(CNCCCCCC(=O)O)c1O [Compound 46, 6-({5-[(4′-Carbamimidoyl-biphenyl-4-ylamino)-methyl]-3-hydroxy-2-methyl-pyridin-4-ylmethyl}-amino)-hexanoic acid]
- inhibition at 100 µM [3, 6]: 35%
- inhibition at 100 µM [3, 7]: 19%
- inhibition at 100 µM ([4]; compound 100 μM): 46%
- inhibition at 100 µM ([5]; compound 100 μM): 29%

Structure (SMILES): N=C(N)c1ccc(COc2c(CF)ncc(CNc3ccc(C(=N)N)cc3)c2CF)cc1 [Compound 153, 4-{5-[(4-Carbamimidoyl-phenylamino)-methyl]-2,4-bis-fluoromethyl-pyridin-3-yloxymethyl}-benzamidine]
- Ki [1]: 665 nM
- Ki [2]: 12 nM

Structure (SMILES): Cc1ncc(COc2ccc(C(=N)N)cc2)c(CO)c1OCc1ccc(C(=N)N)cc1 [Compound 15, 4-(5-(4-Carbamimidoyl-benzyloxy)-4-hydroxymethyl-6-methyl-pyridin-3-ylmethoxy)-benzamidine]
- Ki [1]: 11000 nM
- Ki [2]: 1650 nM

Structure (SMILES): Cc1ncc(COc2ccc(C(=N)N)cc2)c(C)c1OCc1cccc(C(=N)N)c1 [Compound 70, 4-[4,6-Dimethyl-5-(3-carbamimidoyl-benzyloxyl)-pyridin-3-ylmethoxy]-benzamidine]
- Ki [1]: 9000 nM
- Ki [2]: 700 nM

Structure (SMILES): Cc1c(CNc2ccc(C(=N)N)cc2)cnc(CO)c1OCc1cccc(C(=N)N)c1 [Compound 138, 4-{[5-(3-Amidine-benzyloxy)-6-hydroxymethyl-4-methyl-pyridin-3-ylmethyl]-amino}-benzamidine]
- Ki [1]: 412 nM
- Ki [2]: 39 nM

Structure (SMILES): Cc1c(CNc2ccc(C(=N)N)cc2)cnc(CF)c1OCc1cccc(C(=N)N)c1 [Compound 140, 4-{[5-(3-Amidine-benzyloxy)-6-fluoro-methyl-4-methyl-pyridin-3-ylmethyl]-amino}-benzamidine]
- Ki [1]: 423 nM
- Ki [2]: 17 nM

Structure (SMILES): Cc1ncc(COc2ccc(C(=N)N)cc2)c(C(F)F)c1OCc1ccc(C(=N)N)cc1 [Compound 21, 4-[4,4-Difluoromethyl-6-methyl-5-(4-carbamimidoyl-benzyloxy)-pyridin-3-ylmethoxy]-benzamidine]
- Ki [1]: 19000 nM
- Ki [2]: 510 nM

Structure (SMILES): N=C(N)c1ccc(NCc2cnc(CF)c(OCc3cccc(C(=N)N)c3)c2CF)cc1 [Compound 148, 4-{[4,6-Bis-fluoromethyl-5-(3-amidine-benzyloxy)-pyridin-3-ylmethyl]-amino}-benzamidine]
- Ki [1]: 473 nM
- Ki [2]: 9 nM

Structure (SMILES): CCc1c(CNc2ccc(C(=N)N)cc2)cnc(C)c1OCc1cccc(C(=N)N)c1 [Compound 103, 3-{5-[(4-Amidino-phenylamino)-methyl]-4-ethyl-2-methyl-pyridin-3-yloxymethyl}-benzamidine]
- Ki [1]: 961 nM
- Ki [2]: 47 nM

Structure (SMILES): Cc1ncc(CNc2ccc(-c3ccc(C(=N)N)cc3)cc2F)c(CO)c1OCc1ccc(C(=N)N)cc1 [Compound 63, 4′-{[5-(4-Carbamimidoyl-benzyloxy)-4-hydroxymethyl-6-methyl-pyridin-3-ylmethyl]-amino}-3′-fluoro-biphenyl-4-carboxamidine]
- inhibition at 30 µM [3, 6]: 95%
- inhibition at 30 µM [3, 7]: 41%
- inhibition at 30 µM [4]: 95%
- inhibition at 30 µM [5]: 94%

Structure (SMILES): Cc1nc(C2CC2)c(CNc2ccc(C(=N)N)cc2)c(CO)c1OCc1ccc(C(=N)N)cc1 [Compound 174, 4-{5-[(4-Carbamimidoyl-phenylamino)-methyl]-6-cyclopropyl-4-hydroxymethyl-2-methyl-pyridin-3-yloxymethyl}-benzamidine]
- Ki [1]: 1080 nM
- Ki [2]: 37 nM
